The numbers were not newly measured in PMC9127185, “A Pyridazinone Compound for Effectively Treating Non-alcoholic Steatohepatitis by Targeting THRβ” (Frontiers in Chemistry, 2022), which cites them from elsewhere.

Details of the data set: method as in Harrison et al., 2019. Particulars: ref Harrison et al., 2019; cited from earlier work.

Turning to `CC(C)c1cc(Oc2c(Cl)cc(-n3nc(C#N)c(=O)[nH]c3=O)cc2Cl)n[nH]c1=O` [resmetirom, 2-[3,5-Dichloro-4-(5-Isopropyl-6-Oxo-1,6-Dihydropyridazin-3-Yloxy)phenyl]-3,5-Dioxo-2,3,4,5-Tetrahydro[1,2,4]triazine-6-Carbonitrile], the Distribution result is on record as “liver-specific distribution”; the “Effect on low density lipoprotein and triglyceride” value was “reduced both low density lipoprotein and triglyceride effectively”.
